The target of one data set is T1, human FSH receptor (Homo sapiens, UniProt P23945).
T1 construct: host or cells: CHO-K1 (CHO FSH-R 6CRE-Luc, 1D7 cells)
T1 sequence (P23945 18-695): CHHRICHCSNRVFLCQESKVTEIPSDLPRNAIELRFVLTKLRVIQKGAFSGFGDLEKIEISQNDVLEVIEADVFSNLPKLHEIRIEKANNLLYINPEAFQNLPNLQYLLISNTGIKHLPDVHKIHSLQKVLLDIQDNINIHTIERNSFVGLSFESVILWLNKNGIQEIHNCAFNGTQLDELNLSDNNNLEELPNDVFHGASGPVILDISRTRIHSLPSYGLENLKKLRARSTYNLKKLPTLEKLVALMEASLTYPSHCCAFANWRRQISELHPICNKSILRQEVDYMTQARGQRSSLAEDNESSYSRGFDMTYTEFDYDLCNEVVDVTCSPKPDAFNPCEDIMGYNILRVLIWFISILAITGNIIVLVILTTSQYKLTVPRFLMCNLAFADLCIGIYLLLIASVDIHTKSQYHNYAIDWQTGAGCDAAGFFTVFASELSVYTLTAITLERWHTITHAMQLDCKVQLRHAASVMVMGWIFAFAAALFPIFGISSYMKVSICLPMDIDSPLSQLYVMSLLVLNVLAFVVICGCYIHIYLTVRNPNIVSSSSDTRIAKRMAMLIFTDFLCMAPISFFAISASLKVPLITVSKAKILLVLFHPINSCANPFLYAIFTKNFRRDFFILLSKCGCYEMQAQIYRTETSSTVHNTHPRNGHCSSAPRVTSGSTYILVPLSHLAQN
Nature of the data set: Follicle-Stimulating Hormone Receptor-Dependent Cre-Luciferase Reporter Gene Assay (CHO FSH-R 6CRE-Luc cells). The data set is classed as cell-based. Particulars: for IC50: dose-response format, in presence of EC50 of purified human FSH. A digest of the protocol:
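CHO-K1 cells stably expressing human FSH receptor and a 6×CRE-driven luciferase reporter; compounds in growth medium with 0.2% DMSO, incubated 4 h at 37 °C. Luciferase measured by chemiluminescence (RLU/sec/well); 2-dose results given as percent inhibition of the response to an EC50 concentration of FSH.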
A general note: In a reporter assay the amount or activity of a reporter protein is the signal.

Another data set has as its target T2, hFSH-R (Homo sapiens, UniProt P23945).
T2 construct: expressed in transfected cells; host or cells: CHO-3D2 cells (CHO-K1 parental line)
T2 sequence (P23945 18-695): T1 sequence (P23945 18-695)
The experiment in a line: cAMP accumulation (RIA) in CHO-3D2 cells (hFSH-R), hFSH-induced. Type of data set: cell-based. The note with it: for Emax: read-out: cAMP % efficacy. The procedure:
In Vitro Bio-Assay, Selectivity and Dependency of Agonists and Antagonists to the FSH Receptor
Compound Vehicle: Stock compounds were solubilized in 100% DMSO (Sigma-Aldrich Chemical Co., St. Louis, Mo.) at a concentration of 30 mM. The compounds subsequently were diluted in sterile assay medium consisting of Opti-MEM® I (Invitrogen/Life Technologies, Carlsbad, Calif.) with 0.1% (w/v) BSA (Sigma-Aldrich) prior to use in the bio-assay. The final concentration of DMSO in the assay was 0.1%.
Plated cells are then incubated at 37° C. in a humidified 5% CO2/95% air atmosphere.
Assay: On the day of the assay, cells were washed three times with 100 μl/well of assay medium consisting of Opti-MEM® I (Invitrogen/Life Technologies) with 0.1% (w/v) BSA (Sigma-Aldrich). Medium was removed and 100 μl of assay medium was added to each well. Plates were incubated for an additional 30 minutes at 37° C. […] Reactions were terminated by the addition of 50 μl of 0.2N hydrochloric acid to each well and cAMP-accumulation was measured by radioimmunoassay (RIA) using a commercially available kit (Amersham Biosciences, Piscataway, N.J.).
All test compounds were evaluated in a dose-response paradigm ranging from 0.01 to 30 μM. Controls and test compounds were evaluated in quadruplicate in a 96-well format.
Along with the test compounds, FSH also was run as a positive control in the agonist mode using concentrations ranging from 0.1-1000 ng/ml.
Data were analyzed by one-way analysis of variance and significant differences between treatments and control determined by Least Significant Difference test.
Test compounds were compared to the effect of purified human FSH.
A general note: cAMP levels reflect the balance of adenylyl cyclase and phosphodiesterase activity.

Where [1] appears, read: inhibition of cAMP accumulation induced by hFSH at EC20, CHO-3D2 cells.

The record followed here is patent US7691848B2, “Pyrrolobenzodiazepine arylcarboxamides and derivatives thereof as follicle-stimulating hormone receptor antagonists” (Wyeth, priority 2005, dated 2010).

Where two headings read alike, the source gives them in different places.

The term IC50 denotes the concentration that inhibits the measured activity by half. Turning to `COc1ccccc1-c1ccc(C(=O)N2Cc3ccc(C(=O)NCC(c4ccccc4)N(C)C)n3Cc3ccccc32)cc1` (stereo not drawn) [Example 2], the IC50 on human FSH receptor turned out to be 25.7 µM. For the same compound, on hFSH-R, the IC50 was 1.2 µM and the Emax was 100%.

With `COc1cccc(CNC(=O)c2ccc3n2Cc2ccccc2N(C(=O)c2ccc(-c4ccccc4C)c(C)c2)C3)c1` [Example 7], the IC50 at human FSH receptor was 2.25 µM; against hFSH-R it was 0.3 µM. Also, the Emax at hFSH-R was determined as 89%.

One may read the melting point as the temperature of the solid-liquid transition. For `COc1ccc(CNC(=O)c2ccc3n2Cc2ccccc2N(C(=O)c2ccc(-c4ccccc4C)c(C)c2)C3)cc1` [Example 8], the melting point was 127 to 128 °C. Also, the IC50 at human FSH receptor was 2.39 µM. Besides, on hFSH-R, the IC50 amounted to 3.6 µM and the Emax is 63%.

Regarding `Cc1ccccc1-c1ccc(C(=O)N2Cc3ccc(C(=O)NCc4cccc(O)c4)n3Cc3ccccc32)cc1C` [Example 10], the IC50 at human FSH receptor amounted to 4.14 µM. At hFSH-R, the IC50 amounted to 0.9 µM and the Emax was determined as 97%.

Take `Cc1ccccc1-c1ccc(C(=O)N2Cc3ccc(C(=O)NCCc4ccc5c(c4)OCO5)n3Cc3ccccc32)cc1C` [Example 33]: the IC50 on human FSH receptor is 5.65 µM; on hFSH-R, over 30 µM.

`COc1cc(C(=O)N2Cc3ccc(C(=O)NCc4ccc(F)cc4F)n3Cc3ccccc32)ccc1-c1ccccc1C` [Example 61, N-(2,4-DILUOROBENZYL)-10-[(2-METHOXY-2′-METHYL-1,1′-BIPHENYL-4-YL)CARBONYL]-10,11-DIHYDRO-5H-PYRROLO[2,1-C][1,4]BENZODIAZEPINE-3-CARBOXAMIDE]: at human FSH receptor (2-dose format, concentration in parentheses 30 μM, inhibition of the response to EC50 of FSH), the “CRE % inhibition (μM)” value is 50(30) %. On human FSH receptor, the IC50 was 4.23 µM. On hFSH-R (setting [1]), the half-inhibitory concentration (IC50) was 2.8 µM and the cAMP % efficacy is on record as 82%.

For `COc1cc(CNC(=O)c2ccc3n2Cc2ccccc2N(C(=O)c2ccc(-c4ccccc4C)c(OC)c2)C3)cc(OC)c1` [Example 89, N-(3,5-DIMETHOXYBENZYL)-10-[(2-METHOXY-2′-METHYL-1,1′-BIPHENYL-4-YL)CARBONYL]-10,11-DIHYDRO-5H-PYRROLO[2,1-C][1,4]BENZODIAZEPINE-3-CARBOXAMIDE], the melting point was found to be 175 °C. Also, the concentration for half-maximal inhibition (IC50) on human FSH receptor was over 30 µM.

`Cc1ccccc1-c1ccc(C(=O)N2Cc3ccc(C(=O)NCC(c4ccccc4)c4ccccc4)n3Cc3ccccc32)cc1C` [Example 90] gave a melting point of 126 to 128 °C. In addition, the 50% inhibitory concentration (IC50) at human FSH receptor is over 30 µM.

With `Cc1ccccc1-c1ccc(C(=O)N2Cc3ccc(C(=O)NCc4ccc(N(C)C)cc4)n3Cc3ccccc32)cc1C` [Example 91], the melting point lay in the range of 154 to 155 °C. Moreover, the half-inhibitory concentration (IC50) on human FSH receptor was over 30 µM.

Consider `Cc1ccccc1-c1ccc(C(=O)N2Cc3ccc(C(=O)NC4CCc5ccccc54)n3Cc3ccccc32)cc1C` (stereo not drawn) [Example 92], for which the melting point was in the range of 122 to 124 °C. The IC50 at human FSH receptor is over 30 µM.

With `Cc1ccccc1-c1ccc(C(=O)N2Cc3ccc(C(=O)NC4Cc5ccccc5C4)n3Cc3ccccc32)cc1C` [Example 93], the melting point was in the range of 219 to 220 °C. Moreover, on human FSH receptor, the IC50 is over 30 µM.

As to `O=C(NC1CCCc2ccccc21)c1ccc2n1Cc1ccccc1N(C(=O)COc1ccc(Cl)cc1)C2` (stereo not drawn) [Example 94, 10-[(4-CHLOROPHENOXY)ACETYL]-N-(1,2,3,4-TETRAHYDRONAPHTHALEN-1-YL)-10,11-DIHYDRO-5H-PYRROLO[2,1-C][1,4]BENZODIAZEPINE-3-CARBOXAMIDE], the melting point fell in the range of 199 to 200 °C. The IC50 at human FSH receptor is over 30 µM.

Consider `COC(=O)c1ccc(NC(=O)c2ccc3n2Cc2ccccc2N(C(=O)COc2ccc(Cl)cc2)C3)cc1OC` [Example 95, METHYL 4-[({10-[(4-CHLOROPHENOXY)ACETYL]-10,11-DIHYDRO-5H-PYRROLO[2,1-C][1,4]BENZODIAZEPIN-3-YL}CARBONYL)AMINO]-2-METHOXYBENZOATE], for which the melting point was 172 to 174 °C. The IC50 on human FSH receptor is over 30 µM.

Compound `CCOC(=O)c1ccc(NC(=O)c2ccc3n2Cc2ccccc2N(C(=O)COc2ccc(Cl)cc2)C3)cc1` [Example 96, ETHYL 4-[({10-[(4-CHLOROPHENOXY)ACETYL]-10,11-DIHYDRO-5H-PYRROLO[2,1-C][1,4]BENZODIAZEPIN-3-YL}CARBONYL)AMINO]BENZOATE] yielded a melting point of 199 to 201 °C. At human FSH receptor, the IC50 was over 30 µM.

Compound `O=C(Nc1ccc2c(c1)C(O)c1ccccc1-2)c1ccc2n1Cc1ccccc1N(C(=O)COc1ccc(Cl)cc1)C2` (stereo not drawn) [Example 97, 10-[(4-CHLOROPHENOXY)ACETYL]-N-(9-HYDROXY-9H-FLUOREN-2-YL)-10,11-DIHYDRO-5H-PYRROLO[2,1-C][1,4]BENZODIAZEPINE-3-CARBOXAMIDE] returned a melting point of 176 to 182 °C. On human FSH receptor, the IC50 is over 30 µM.

Regarding `COC(=O)c1cc(NC(=O)c2ccc3n2Cc2ccccc2N(C(=O)COc2ccc(Cl)cc2)C3)cc(C(=O)OC)c1` [Example 98, DIMETHYL 5-[({10-[(4-CHLOROPHENOXY)ACETYL]-10,11-DIHYDRO-5H-PYRROLO[2,1-C][1,4]BENZODIAZEPIN-3-YL}CARBONYL)AMINO]ISOPHTHALATE], the melting point is 213 to 217 °C. Besides, the concentration for half-maximal inhibition (IC50) on human FSH receptor is over 30 µM.

Take `CCOC(=O)c1cccc(NC(=O)c2ccc3n2Cc2ccccc2N(C(=O)COc2ccc(Cl)cc2)C3)c1` [Example 99, ETHYL 3-[({10-[(4-CHLOROPHENOXY)ACETYL]-10,11-DIHYDRO-5H-PYRROLO[2,1-C][1,4]BENZODIAZEPIN-3-YL}CARBONYL)AMINO]BENZOATE]: the melting point lay within 179 to 180 °C. Moreover, the IC50 at human FSH receptor is over 30 µM.

`O=C(Nc1cccc(-c2ccccc2)c1)c1ccc2n1Cc1ccccc1N(C(=O)COc1ccc(Cl)cc1)C2` [Example 100, N-(1,1′-BIPHENYL-3-YL)-10-[(4-CHLOROPHENOXY)ACETYL]-10,11-DIHYDRO-5H-PYRROLO[2,1-C][1,4]BENZODIAZEPINE-3-CARBOXAMIDE] yielded a melting point of 185 to 189 °C. Moreover, the IC50 on human FSH receptor is over 30 µM.

Compound `CN(C)c1cccc(NC(=O)c2ccc3n2Cc2ccccc2N(C(=O)COc2ccc(Cl)cc2)C3)c1` [Example 101, 10-[(4-CHLOROPHENOXY)ACETYL]-N-[3-(DIMETHYLAMINO)PHENYL]-10,11-DIHYDRO-5H-PYRROLO[2,1-C][1,4]BENZODIAZEPINE-3-CARBOXAMIDE] showed a melting point of 133 to 136 °C. Further, the IC50 at human FSH receptor was over 30 µM.

In turn, `CC(C)(C)c1ccc(NC(=O)c2ccc3n2Cc2ccccc2N(C(=O)COc2ccc(Cl)cc2)C3)cc1` [Example 102, N-(4-TERT-BUTYLPHENYL)-10-[(4-CHLOROPHENOXY)ACETYL]-10,11-DIHYDRO-5H-PYRROLO[2,1-C][1,4]BENZODIAZEPINE-3-CARBOXAMIDE] had a melting point of 111 to 113 °C. The IC50 at human FSH receptor is over 30 µM.

`O=C1c2cc(Br)ccc2-c2ccc(NC(=O)c3ccc4n3Cc3ccccc3N(C(=O)COc3ccc(Cl)cc3)C4)cc21` [Example 103, N-(7-BROMO-9-OXO-9H-FLUOREN-2-YL)-10-[(4-CHLOROPHENOXY)ACETYL]-10,11-DIHYDRO-5H-PYRROLO[2,1-C][1,4]BENZODIAZEPINE-3-CARBOXAMIDE] displayed a melting point of 277 to 278 °C. The 50% inhibitory concentration (IC50) on human FSH receptor is over 30 µM.

Compound `O=C(NCCc1ccc2c(c1)OCO2)c1ccc2n1Cc1ccccc1N(C(=O)CSc1ccc(Br)cc1)C2` [Example 104, N-[2-(1,3-BENZODIOXOL-5-YL)ETHYL]-10-{[(4-BROMOPHENYL)THIO]ACETYL}-10,11-DIHYDRO-5H-PYRROLO[2,1-C][1,4]BENZODIAZEPINE-3-CARBOXAMIDE] showed a melting point of 143 °C. Besides, the IC50 at human FSH receptor is over 30 µM.
